{"source": "patent US4644055A", "about": "“Method for preparing specific inhibitors of virus-specified proteases” (priority 1984, dated 1987)", "key": {"[1]": {"system": "human poliomyelitisvirus type 2", "type": "cell-based, poliovirus type 2", "parameters": "key to Comparative Experiments Involving Other Peptide Halomethyl Ketones: Activity: -: no activity; +/-: low activity; +: active at 100 μg/mL; ++: active at 50 μg/mL; +++: active at 10 μg/mL; ++++: active at <5 μg/mL"}, "human rhinovirus type 1A [2]": {"system": "human rhinovirus type 1A", "type": "cell-based"}, "poliovirus": {"system": "poliovirus", "settings": "cited from earlier work"}, "echovirus-12": {"system": "echovirus-12", "settings": "Korant 1972; cited from earlier work"}, "chymotrypsin": {"target": "chymotrypsin (Bos taurus, UniProt P00766)", "settings": "inhibitor concentration 600 μg/mL; Ito et al. 1972; cited from earlier work"}, "human rhinovirus type 1A [3]": {"system": "human rhinovirus type 1A", "assay": "Plaque inhibition assay, rhinovirus", "type": "cell-based"}, "poliovirus type 2": {"system": "poliovirus type 2", "type": "cell-based"}}, "note": "Read-outs that look alike come from different tables or passages of the source. Starred links: 1 amine or outer side, 2 acyl side, 3 side chain; linkers in the order of their positions; H or OH if unused. *: point of attachment. code Z = not defined here; MeOSuc = COC(=O)CCC(=O)*; CH2 = C([*:1])[*:2]; CH2Cl = ClC*", "data": [{"molecule": "Z--Gln--Gly--Ala--LeuCH2 Cl ({code Z}-QGAL-CH2Cl; reading uncertain; also: printed as Z--Gln--Gly--Ala--LeuCH2 Cl)", "values": [{"measurement": "Comparative Experiments Involving Other Peptide Halomethyl Ketones: Activity", "setting": "[1]", "value": "+ (key: -: no activity; +/-: low activity; +: active at 100 μg/mL; ++: active at 50 μg/mL; +++: active at 10 μg/mL; ++++: active at <5 μg/mL)"}]}, {"molecule": "Z--Phe--Gly--Gly--LeuCH2 Cl ({code Z}-FGGL-CH2Cl; reading uncertain; also: printed as Z--Phe--Gly--Gly--LeuCH2 Cl)", "values": [{"measurement": "Protease-Inhibiting Activity of Selected Peptide Halomethyl Ketones: Activity", "setting": "[1]", "value": "+++ (key: -: no activity; +/-: low activity; +: active at 100 μg/mL; ++: active at 50 μg/mL; +++: active at 10 μg/mL; ++++: active at <5 μg/mL)"}]}, {"molecule": "Z-Phe-Ser-Ala-LeuCH2 Cl ({code Z}-FSAL-CH2Cl; reading uncertain; also: printed as Z-Phe-Ser-Ala-LeuCH2 Cl) [Z--Phe--Ser--Ala--LeuCH2 Cl]", "values": [{"measurement": "Comparative Experiments Involving Other Peptide Halomethyl Ketones: Activity", "setting": "[1]", "value": "+ (key: -: no activity; +/-: low activity; +: active at 100 μg/mL; ++: active at 50 μg/mL; +++: active at 10 μg/mL; ++++: active at <5 μg/mL)"}]}, {"molecule": "Z-Phe-Gly-Ser-LeuCH2 Cl ({code Z}-FGSL-CH2Cl; reading uncertain; also: printed as Z-Phe-Gly-Ser-LeuCH2 Cl) [Z--Phe--Gly--Ser--LeuCH2 Cl]", "values": [{"measurement": "Protease-Inhibiting Activity of Selected Peptide Halomethyl Ketones: Activity", "setting": "[1]", "value": "++ (key: -: no activity; +/-: low activity; +: active at 100 μg/mL; ++: active at 50 μg/mL; +++: active at 10 μg/mL; ++++: active at <5 μg/mL)"}]}, {"molecule": "Z--Phe--Lys--Ala--LeuCH2 Cl ({code Z}-FKAL-CH2Cl; reading uncertain; also: printed as Z--Phe--Lys--Ala--LeuCH2 Cl)", "values": [{"measurement": "Comparative Experiments Involving Other Peptide Halomethyl Ketones: Activity", "setting": "[1]", "value": "+ (key: -: no activity; +/-: low activity; +: active at 100 μg/mL; ++: active at 50 μg/mL; +++: active at 10 μg/mL; ++++: active at <5 μg/mL)"}]}, {"molecule": "Z-Phe-Gly-Leu-LeuCH3 [Z--Phe--Gly--Leu--LeuCH3]", "values": [{"measurement": "activity in the viral cleavage assay", "setting": "[1]", "value": "demonstrated activity"}, {"measurement": "activity in the viral cleavage assay", "setting": "human rhinovirus type 1A [2]", "value": "demonstrated activity"}]}, {"molecule": "Z-- Phe--Gly--Pro--LeuCH2 Cl ({code Z}-FGPL-CH2Cl; reading uncertain; also: printed as Z-- Phe--Gly--Pro--LeuCH2 Cl)", "values": [{"measurement": "Protease-Inhibiting Activity of Selected Peptide Halomethyl Ketones: Activity", "setting": "[1]", "value": "++ (key: -: no activity; +/-: low activity; +: active at 100 μg/mL; ++: active at 50 μg/mL; +++: active at 10 μg/mL; ++++: active at <5 μg/mL)"}]}, {"molecule": "Z-Phe-Gly-Ala-TyrCH2 Cl ({code Z}-FGAY-CH2Cl; reading uncertain; also: printed as Z-Phe-Gly-Ala-TyrCH2 Cl) [Z--Phe--Gly--Ala--TyrCH2 Cl]", "values": [{"measurement": "Protease-Inhibiting Activity of Selected Peptide Halomethyl Ketones: Activity", "setting": "[1]", "value": "++ (key: -: no activity; +/-: low activity; +: active at 100 μg/mL; ++: active at 50 μg/mL; +++: active at 10 μg/mL; ++++: active at <5 μg/mL)"}]}, {"molecule": "Cc1ccc(S(=O)(=O)N[C@@H](Cc2ccccc2)C(=O)CCl)cc1", "note": "[TPCK, tolylsulfonylphenylalanyl chloromethyl ketone]", "values": [{"measurement": "inhibition of poliovirus protein processing / protease cleavage of poliovirus-specific polypeptides", "setting": "poliovirus", "value": "inhibition"}, {"measurement": "inhibition of echovirus-12 protein processing", "setting": "echovirus-12", "value": "inhibition"}]}, {"molecule": "Z--Ala--Gly--Ala--LeuCH2 Cl ({code Z}-AGAL-CH2Cl; reading uncertain; also: printed as Z--Ala--Gly--Ala--LeuCH2 Cl)", "values": [{"measurement": "Comparative Experiments Involving Other Peptide Halomethyl Ketones: Activity", "setting": "[1]", "value": "+/-"}]}, {"molecule": "Cc1ccc(S(=O)(=O)NC(CCCCN)C(=O)CCl)cc1", "note": "(stereo not drawn) [TLCK, tolylsulfonyllysyl chloromethyl ketone]", "values": [{"measurement": "inhibition of poliovirus protein processing / protease cleavage of poliovirus-specific polypeptides", "setting": "poliovirus", "value": "inhibition"}, {"measurement": "inhibition of echovirus-12 protein processing", "setting": "echovirus-12", "value": "inhibition"}]}, {"molecule": "Z--Phe--Gly--Phe--LeuCH2 Cl ({code Z}-FGFL-CH2Cl; reading uncertain; also: printed as Z--Phe--Gly--Phe--LeuCH2 Cl)", "values": [{"measurement": "Protease-Inhibiting Activity of Selected Peptide Halomethyl Ketones: Activity", "setting": "[1]", "value": "++ (key: -: no activity; +/-: low activity; +: active at 100 μg/mL; ++: active at 50 μg/mL; +++: active at 10 μg/mL; ++++: active at <5 μg/mL)"}]}, {"molecule": "Ac-Leu-Leu-PheCH3", "values": [{"measurement": "inhibition of chymotrypsin", "setting": "chymotrypsin", "value": "no inhibition was observed"}]}, {"molecule": "Z-Phe-Gly-Ala-LeuCH3 ({code Z}-FGAL-CH2; reading uncertain; also: printed as Z-Phe-Gly-Ala-LeuCH3)", "values": [{"measurement": "activity in the viral cleavage assay", "setting": "[1]; 50 μg/mL", "value": "active"}, {"measurement": "activity in the viral cleavage assay", "setting": "[1]; test concentration 100 μg/mL", "value": "demonstrated activity"}, {"measurement": "activity in the viral cleavage assay", "setting": "human rhinovirus type 1A [2]; test concentration 100 μg/mL", "value": "demonstrated activity"}, {"measurement": "plaque reduction", "setting": "human rhinovirus type 1A [3]; 50 μg/mL in agar overlay, compared to control plates", "value": "> 90", "unit": "%"}, {"measurement": "plaque reduction", "setting": "poliovirus type 2", "value": "> 90", "unit": "%"}]}, {"molecule": "MeOSuc-Phe-Gly-Leu-LeuCH3 (MeOSuc-FGLL-CH2; SMILES COC(=O)CCC(=O)N[C@@H](Cc1ccccc1)C(=O)NCC(=O)N[C@@H](CC(C)C)C(=O)N[C@@H](CC(C)C)C(C)=O)", "values": [{"measurement": "activity in the viral cleavage assay", "setting": "[1]; 50 μg/mL", "value": "active"}]}, {"molecule": "Z--Phe--Gly--Lys--LeuCH2 Cl ({code Z}-FGKL-CH2Cl; reading uncertain; also: printed as Z--Phe--Gly--Lys--LeuCH2 Cl)", "values": [{"measurement": "Comparative Experiments Involving Other Peptide Halomethyl Ketones: Activity", "setting": "[1]", "value": "+ (key: -: no activity; +/-: low activity; +: active at 100 μg/mL; ++: active at 50 μg/mL; +++: active at 10 μg/mL; ++++: active at <5 μg/mL)"}]}, {"molecule": "Z--Phe--Phe--Ala--LeuCH2 Cl ({code Z}-FFAL-CH2Cl; reading uncertain; also: printed as Z--Phe--Phe--Ala--LeuCH2 Cl)", "values": [{"measurement": "Comparative Experiments Involving Other Peptide Halomethyl Ketones: Activity", "setting": "[1]", "value": "+/-"}]}, {"molecule": "Z--Leu--Gly--Ala--LeuCH2 Cl ({code Z}-LGAL-CH2Cl; reading uncertain; also: printed as Z--Leu--Gly--Ala--LeuCH2 Cl)", "values": [{"measurement": "Protease-Inhibiting Activity of Selected Peptide Halomethyl Ketones: Activity", "setting": "[1]", "value": "+++ (key: -: no activity; +/-: low activity; +: active at 100 μg/mL; ++: active at 50 μg/mL; +++: active at 10 μg/mL; ++++: active at <5 μg/mL)"}]}, {"molecule": "Z-Phe-Gly-Ala-ValCH2 Cl ({code Z}-FGAV-CH2Cl; reading uncertain; also: printed as Z-Phe-Gly-Ala-ValCH2 Cl) [Z--Phe--Gly--Ala--ValCH2 Cl]", "values": [{"measurement": "Protease-Inhibiting Activity of Selected Peptide Halomethyl Ketones: Activity", "setting": "[1]", "value": "++ (key: -: no activity; +/-: low activity; +: active at 100 μg/mL; ++: active at 50 μg/mL; +++: active at 10 μg/mL; ++++: active at <5 μg/mL)"}]}, {"molecule": "Z--Phe--Pro--Ala--LeuCH2 Cl ({code Z}-FPAL-CH2Cl; reading uncertain; also: printed as Z--Phe--Pro--Ala--LeuCH2 Cl)", "values": [{"measurement": "Comparative Experiments Involving Other Peptide Halomethyl Ketones: Activity", "setting": "[1]", "value": "+ (key: -: no activity; +/-: low activity; +: active at 100 μg/mL; ++: active at 50 μg/mL; +++: active at 10 μg/mL; ++++: active at <5 μg/mL)"}]}, {"molecule": "Z--Phe--Leu--Ala--LeuCH2 Cl ({code Z}-FLAL-CH2Cl; reading uncertain; also: printed as Z--Phe--Leu--Ala--LeuCH2 Cl)", "values": [{"measurement": "Protease-Inhibiting Activity of Selected Peptide Halomethyl Ketones: Activity", "setting": "[1]", "value": "++ (key: -: no activity; +/-: low activity; +: active at 100 μg/mL; ++: active at 50 μg/mL; +++: active at 10 μg/mL; ++++: active at <5 μg/mL)"}]}, {"molecule": "Z-Phe-Gly-Ala-LeuCH2 Br ({code Z}-FGAL-CH2Br; reading uncertain; also: printed as Z-Phe-Gly-Ala-LeuCH2 Br) [Z--Phe--Gly--Ala--LeuCH2 Br]", "values": [{"measurement": "Protease-Inhibiting Activity of Selected Peptide Halomethyl Ketones: Activity", "setting": "[1]", "value": "+++ (key: -: no activity; +/-: low activity; +: active at 100 μg/mL; ++: active at 50 μg/mL; +++: active at 10 μg/mL; ++++: active at <5 μg/mL)"}]}, {"molecule": "Z-Phe-Gly-Ala-LeuCH2 Cl ({code Z}-FGAL-CH2Cl; reading uncertain; also: printed as Z-Phe-Gly-Ala-LeuCH2 Cl) [Z--Phe--Gly--Ala--LeuCH2 Cl]", "values": [{"measurement": "Protease-Inhibiting Activity of Selected Peptide Halomethyl Ketones: Activity", "setting": "[1]", "value": "+++ (key: -: no activity; +/-: low activity; +: active at 100 μg/mL; ++: active at 50 μg/mL; +++: active at 10 μg/mL; ++++: active at <5 μg/mL)"}]}, {"molecule": "Z-Phe-Gly-Leu-LeuCH2 Cl ({code Z}-FGLL-CH2Cl; reading uncertain; also: printed as Z-Phe-Gly-Leu-LeuCH2 Cl) [Z--Phe--Gly--Leu--LeuCH2 Cl]", "values": [{"measurement": "Protease-Inhibiting Activity of Selected Peptide Halomethyl Ketones: Activity", "setting": "[1]", "value": "++++ (key: -: no activity; +/-: low activity; +: active at 100 μg/mL; ++: active at 50 μg/mL; +++: active at 10 μg/mL; ++++: active at <5 μg/mL)"}, {"measurement": "Antiviral activity, as scored by 90% plaque reduction, noted at concentration", "setting": "human rhinovirus type 1A [3]; HeLa cells, agar overlay", "value": 1, "unit": "µg/mL"}, {"measurement": "concentration at which cytotoxicity was first detected", "setting": "human HeLa-O cells", "value": "about 15 μg/mL"}]}]}
